Key:
Experiment in all cases: relative viability (nuclei count vs DMSO), 5 days (fraction); higher = more cells survive
IU1-47 + Palbociclib = compound: CC1=CC(=C(N1C2=CC=C(C=C2)Cl)C)C(=O)CN3CCCCC3 [IU1-47] + CC(=O)c1c(C)c2cnc(Nc3ccc(N4CCNCC4)cn3)nc2n(C2CCCC2)c1=O [Palbociclib] (partner 0.5 µM)
Summary of the method: (§1)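 Nuclei were stained with Hoechst during a one-step fixation (final 0.05% Triton X-100, 1% formaldehyde, 1 ug/ml Hoechst) carried out 5 days after dosing, then counted on 4× images. The cells, lung cancer lines in 1536-well plates, had been dosed by pin tool the day after seeding with one drug alone or a fixed anchor-drug dose plus five library-drug doses (not always all listed) in √10 steps. Relative viability is the nuclei count in treated wells divided by that in vehicle wells, and each value is the median of duplicate plates.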

FG-4592 + Foretinib = compound: Cc1nc(C(=O)NCC(=O)O)c(O)c2ccc(Oc3ccccc3)cc12 [FG-4592] + COc1cc2c(Oc3ccc(NC(=O)C4(C(=O)Nc5ccc(F)cc5)CC4)cc3F)ccnc2cc1OCCCN1CCOCC1 [Foretinib] (partner 0.25 µM)
Summary of the method: as §1

FG-4592 + Dasatinib = compound: Cc1nc(C(=O)NCC(=O)O)c(O)c2ccc(Oc3ccccc3)cc12 [FG-4592] + Cc1nc(Nc2ncc(C(=O)Nc3c(C)cccc3Cl)s2)cc(N2CCN(CCO)CC2)n1 [Dasatinib] (partner 0.075 µM)
Summary of the method: as §1

FG-4592 + Pemetrexed = compound: Cc1nc(C(=O)NCC(=O)O)c(O)c2ccc(Oc3ccccc3)cc12 [FG-4592] + Nc1nc2[nH]cc(CCc3ccc(C(=O)N[C@@H](CCC(=O)O)C(=O)O)cc3)c2c(=O)[nH]1 [Pemetrexed] (partner 0.2 µM)
Summary of the method: as §1

UMC-11 was tested, and the relative viability (IU1-47 + Palbociclib; first compound 0.08 µM) was 0.353, the relative viability (IU1-47 + Palbociclib; first compound 0.253 µM) was 0.339 and the relative viability (IU1-47 + Palbociclib; first compound 0.8 µM) was 0.333. The relative viability (IU1-47 + Palbociclib; first compound 2.53 µM) was 0.322, the relative viability (IU1-47 + Palbociclib; first compound 8 µM) was 0.351 and the relative viability (FG-4592 + Foretinib; first compound 0.08 µM) was 1.06. It also gave a relative viability (FG-4592 + Foretinib; first compound 0.253 µM) of 1.03, a relative viability (FG-4592 + Foretinib; first compound 0.8 µM) of 0.918 and a relative viability (FG-4592 + Foretinib; first compound 2.53 µM) of 1.03. It also gave a relative viability (FG-4592 + Foretinib; first compound 8 µM) of 0.671, a relative viability (FG-4592 + Dasatinib; first compound 0.08 µM) of 0.439 and a relative viability (FG-4592 + Dasatinib; first compound 0.253 µM) of 0.46. It also gave a relative viability (FG-4592 + Dasatinib; first compound 0.8 µM) of 0.447, a relative viability (FG-4592 + Dasatinib; first compound 2.53 µM) of 0.417 and a relative viability (FG-4592 + Dasatinib; first compound 8 µM) of 0.493. The relative viability (FG-4592 + Pemetrexed; first compound 0.08 µM) was 0.738, the relative viability (FG-4592 + Pemetrexed; first compound 0.253 µM) was 0.867 and the relative viability (FG-4592 + Pemetrexed; first compound 0.8 µM) was 0.843. The relative viability (FG-4592 + Pemetrexed; first compound 2.53 µM) was 0.791 and the relative viability (FG-4592 + Pemetrexed; first compound 8 µM) was 0.688.
